From US20210323950A1, “HERBICIDALLY ACTIVE BICYCLIC BENZOYLPYRAZOLES” (Bayer Aktiengesellschaft, priority 2018, published 2021)

Columns and labels:
Assay type in all cases: in vivo
[1] = system: Abutilon theophrasti (ABUTH); assay: Pre-emergence herbicidal action against ABUTH; conditions: 80 g/ha, scored visually after about 3 weeks vs untreated controls
Excerpt: (§1) ABUTH: Abutilon theophrasti 1. Pre-Emergence Herbicidal Action and Crop Plant Compatibility Seeds of monocotyledonous and dicotyledonous weed plants and crop plants are placed in plastic or organic planting pots and covered with soil. The compounds of the invention, formulated in the form of wettable powders (WP) or as emulsion concentrates (EC), are then applied onto the surface of the covering soil as aqueous suspension or emulsion with addition of 0.5% additive at a water application rate of […] (converted). After the treatment, the pots are placed in a greenhouse and kept under good growth conditions for the trial plants. After about 3 weeks, the effect of the preparations is scored visually in comparison with untreated controls as percentages. The tables below show the herbicidal activity of numerous compounds according to the invention against important harmful plants. For example, 100% activity=the plants have died, 0% activity=like control plants.

Stellaria media (STEME) [2] = assay: Pre-emergence herbicidal action against STEME; conditions: 80 g/ha, scored visually after about 3 weeks vs untreated controls
Excerpt: as §1, with “STEME: Stellaria media” for “ABUTH: Abutilon theophrasti”

[3] = system: Amaranthus retroflexus (AMARE); assay: Pre-emergence herbicidal action against AMARE; conditions: 80 g/ha, scored visually after about 3 weeks vs untreated controls
Excerpt: as §1, with “AMARE: Amaranthus retroflexus” for “ABUTH: Abutilon theophrasti”

Stellaria media (STEME) [4] = assay: Post-emergence herbicidal action against STEME; conditions: 20 g/ha, post-emergence at one-leaf stage, rated visually after about 3 weeks vs untreated controls
Method: (§2) STEME: Stellaria media 2. Post-Emergence Herbicidal Action and Crop Plant Compatibility Seeds of monocotyledonous and dicotyledonous weeds and crop plants are placed in sandy loam in plastic or organic planting pots, covered with soil and cultivated in a greenhouse under controlled growth conditions. 2 to 3 weeks after sowing, the test plants are treated at the one-leaf stage. The compounds of the invention, formulated in the form of wettable powders (WP) or as emulsion concentrates (EC), are then sprayed onto the green parts of the plants as aqueous suspension or emulsion with addition of 0.5% additive at a water application rate of […] (converted). After the test plants had been kept in the greenhouse under optimum growth conditions for about 3 weeks, the activity of the preparations is rated visually in comparison to untreated controls. The tables below show the herbicidal activity of numerous compounds according to the invention against important harmful plants. For example, 100% activity=the plants have died, 0% activity=like control plants.

Setaria viridis (SETVI) [5] = assay: Pre-emergence herbicidal action against SETVI; conditions: 80 g/ha, scored visually after about 3 weeks vs untreated controls
Excerpt: as §1, with “SETVI: Setaria viridis” for “ABUTH: Abutilon theophrasti”

[6] = system: Amaranthus retroflexus (AMARE); assay: Post-emergence herbicidal action against AMARE; conditions: 20 g/ha, post-emergence at one-leaf stage, rated visually after about 3 weeks vs untreated controls
Method: as §2, with “AMARE: Amaranthus retroflexus” for “STEME: Stellaria media”

Viola tricolor (VIOTR) = assay: Pre-emergence herbicidal action against VIOTR; conditions: 80 g/ha, scored visually after about 3 weeks vs untreated controls
Excerpt: as §1, with “VIOTR: Viola tricolor” for “ABUTH: Abutilon theophrasti”

Setaria viridis (SETVI) [7] = assay: Post-emergence herbicidal action against SETVI; conditions: 20 g/ha, post-emergence at one-leaf stage, rated visually after about 3 weeks vs untreated controls
Method: as §2, with “SETVI: Setaria viridis” for “STEME: Stellaria media”

[8] = system: Echinochloa crus-galli (ECHCG); assay: Post-emergence herbicidal action against ECHCG; conditions: 20 g/ha, post-emergence at one-leaf stage, rated visually after about 3 weeks vs untreated controls
Method: as §2, with “ECHCG: Echinochloa crus-galli” for “STEME: Stellaria media”

[9] = system: Echinochloa crus-galli (ECHCG); assay: Pre-emergence herbicidal action against ECHCG; conditions: 80 g/ha, scored visually after about 3 weeks vs untreated controls
Excerpt: as §1, with “ECHCG: Echinochloa crus-galli” for “ABUTH: Abutilon theophrasti”

Structure (SMILES) | Pre-emergence action against ABUTH [1] | Pre-emergence action against STEME (Stellaria media (STEME) [2]) | Pre-emergence action against AMARE [3] | Post-emergence action against STEME (Stellaria media (STEME) [4]) | Pre-emergence action against SETVI (Setaria viridis (SETVI) [5]) | Post-emergence action against AMARE [6] | Pre-emergence action against VIOTR (Viola tricolor (VIOTR)) | Post-emergence action against SETVI (Setaria viridis (SETVI) [7]) | Post-emergence action against ECHCG [8] | Pre-emergence action against ECHCG [9]
Cc1nn(C)c(O)c1C(=O)c1ccc(C(F)(F)F)c2c1OCS2 [Example 1-23] | 100% | 100% | 80% | 80% | 100% | 100% | – | – | – | –
Cn1ncc(C(=O)c2ccc(C(F)(F)F)c3c2SCS3)c1O [Example 1-58] | – | 90% | 80% | 80% | – | 90% | 100% | 80% | – | –
Cn1ncc(C(=O)c2ccc(C(F)(F)F)c3c2SCCS3)c1O [Example 1-60] | – | 90% | 100% | 80% | – | 90% | 100% | – | – | –
CCn1ncc(C(=O)c2ccc(C(F)(F)F)c3c2SCCS3)c1O [Example 1-65] | – | 100% | 100% | – | 90% | 80% | 100% | 100% | 80% | 80%
Cc1nn(C)c(O)c1C(=O)c1ccc(C(F)(F)F)c2c1SCCS2 [Example 1-70] | – | 100% | 100% | 80% | – | 90% | 90% | – | – | –
CCn1ncc(C(=O)c2ccc(C(F)(F)F)c3c2SCS3(=O)=O)c1O [Example 1-89] | 90% | 100% | 100% | 80% | – | 90% | – | – | – | –
Cc1nn(C)c(O)c1C(=O)c1ccc(C(F)(F)F)c2c1SCS2(=O)=O [Example 1-93] | – | 90% | 100% | – | – | 90% | – | – | 80% | –
Cn1nc(C2CC2)c(C(=O)c2ccc(C(F)(F)F)c3c2OCS3)c1O [Example 1-112] | – | 90% | 100% | 80% | – | 100% | 90% | – | 80% | –
Cn1ncc(C(=O)c2ccc(C(F)(F)C(F)(F)F)c3c2OCS3(=O)=O)c1O [Example 1-130] | – | 100% | 100% | 90% | – | 100% | – | – | – | –
CCn1ncc(C(=O)c2ccc(C(F)(F)C(F)(F)F)c3c2OCS3)c1O [Example 1-131] | 100% | 90% | 100% | – | 100% | – | 100% | 80% | 80% | –
